Test [1] deals with T1, Type-1 angiotensin II receptor B (Rattus norvegicus, UniProt P29089).
T1 sequence (P29089 whole entry): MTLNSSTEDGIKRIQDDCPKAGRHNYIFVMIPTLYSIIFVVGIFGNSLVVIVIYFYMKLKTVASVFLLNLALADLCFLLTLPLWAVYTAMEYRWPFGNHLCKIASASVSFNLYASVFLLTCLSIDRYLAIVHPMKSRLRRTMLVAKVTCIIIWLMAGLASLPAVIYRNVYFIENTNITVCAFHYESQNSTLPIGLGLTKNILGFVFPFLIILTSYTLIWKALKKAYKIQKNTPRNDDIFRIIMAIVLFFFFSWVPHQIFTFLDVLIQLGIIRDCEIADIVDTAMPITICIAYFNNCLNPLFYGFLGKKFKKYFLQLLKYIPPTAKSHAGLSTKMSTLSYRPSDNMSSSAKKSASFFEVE
In words: In vitro binding affinity at Angiotensin II receptor, type 1 from rat liver membrane by [125I]- A II displacement.

For another test, the species on record is Oryctolagus cuniculus. The test can be described thus: Antagonism of the AII induced contraction of rabbit aortic tissue in a functional assay. As to conditions: Aorta.

Molecules are shown by their SMILES.

Usually IC50 stands for the midpoint of a concentration-inhibition curve. Low values mean higher potency, high ones lower potency. `CCCCC1=NC(C)(C2CCCC2)C(=O)N1Cc1ccc(-c2ccccc2C(=O)O)cc1` (centres undefined): the IC50 in test [1] was found to be 3.3 nM; in the test filed under Oryctolagus cuniculus, 9.6 nM.
Turning to `CCCCC1=NC(C)(c2ccccc2)C(=O)N1Cc1ccc(-c2ccccc2C(=O)O)cc1` (centres undefined), the concentration for half-maximal inhibition (IC50) in test [1] was found to be 19 nM; in the test filed under Oryctolagus cuniculus, 130 nM.

Source of the values: ChEMBL document CHEMBL1150486, “Dihydro-imidazolone derivatives as angiotensin II receptor antagonists: chiral effect on the activity” (Bioorg Med Chem Lett, 1994).
